Measurements as given in patent US7863330B2, “Deloxiglumide and proton pump inhibitor combination in the treatment of gastrointestinal disorders” (Rottapharm S.p.A., priority 2006, dated 2011).

Key:
CCK1 receptors = biological target: T1, CCK1 receptors (Homo sapiens, UniProt P32238); conditions: cited from earlier work
T1 sequence (P32238 1-428): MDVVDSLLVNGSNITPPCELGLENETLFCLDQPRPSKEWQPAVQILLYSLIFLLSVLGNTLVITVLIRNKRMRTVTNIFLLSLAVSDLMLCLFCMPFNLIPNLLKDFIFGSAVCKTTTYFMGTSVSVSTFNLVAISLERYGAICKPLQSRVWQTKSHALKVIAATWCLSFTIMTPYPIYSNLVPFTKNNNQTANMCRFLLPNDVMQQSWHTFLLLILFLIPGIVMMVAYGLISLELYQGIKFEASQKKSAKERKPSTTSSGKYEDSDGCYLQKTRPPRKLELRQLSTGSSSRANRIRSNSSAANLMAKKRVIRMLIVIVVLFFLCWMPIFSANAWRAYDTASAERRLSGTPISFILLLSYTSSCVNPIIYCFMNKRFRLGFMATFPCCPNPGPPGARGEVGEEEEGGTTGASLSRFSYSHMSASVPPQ

[1] = test system: endogenous and exogenous CCK; conditions: cited from earlier work
[2] = test system: CCK-induced delay in gastric emptying; conditions: healthy subjects; cited from earlier work
[3] = test system: CCK release in response to duodenal lipid infusion; conditions: healthy subjects, cited from earlier work
[4] = test system: antro-pyloroduodenal dysmotility; conditions: healthy subjects; intraduodenal infusion of a mixed liquid meal; cited from earlier work
nonulcer dyspepsia = conditions: cited from earlier work
[5] = test system: acute reflux esophagitis in pylorus-ligated rats; experiment: Acute reflux esophagitis in pylorus- and limiting ridge-ligated rats; format: in vivo; design: key to Average Score lesions: lesion index 0 = no lesion to 6 = hemorrhage >40 mm/perforation; conditions: for ED50: Rattus norvegicus, intraduodenal, compound administered separately, intraduodenally, from dose-response regression line, read-out: ED50 (dose which reduces the esophagus lesions by 50%); for % Effect vs. control: after 3 hours; for Average Score lesions: esophagus lesion index 0-6 after 3 hours
Experimental: Male rats of 175-200 g body weight were fasted for 24 hours prior the experiment. Water was allowed ad libitum. Under ether anesthesia, the abdomen was incised along the midline, and both pylorus and limiting ridge (transitional region between the forestomach and corpus) were simultaneously ligated. Consequently, the total capacity of the stomach to hold gastric juice was greatly diminished, resulting in reflux of gastric juice into the esophagus. Following ligation of pylorus and limiting ridge, the test compounds were given intraduodenally (5 ml/kg), and the abdomen was closed by suturing. After 3 hours, rats were killed by ether overdose and the gastroesophageal portion was excised. The lesion in the thoracic esophagus was scored macroscopically, using a lesion index according to the following criteria: no lesion as 0; edema as 1; reddening as 2; the length of hemorrhagic area<20 mm as 3; the length of hemorrhagic area 20-30 mm as 4; the length of hemorrhagic area 30-40 mm as 5; the length of hemorrhagic area>40 mm or perforation as 6.
The doses of the tested compounds which reduce of 50% the esophagus lesions (ED50) and their P=0.05 fiducial limits were calculated from the dose-response regression line.

functional dyspepsia = conditions: patients with functional dyspepsia; duodenal infusion of lipid with or without balloon distension; compared to placebo; cited from earlier work
[6] = test system: gastrointestinal motility; conditions: preclinical and clinical studies; cited from earlier work
CCK2 receptors = biological target: T2, CCK2 receptors (Homo sapiens, UniProt P32239); conditions: cited from earlier work
T2 sequence (P32239 1-447): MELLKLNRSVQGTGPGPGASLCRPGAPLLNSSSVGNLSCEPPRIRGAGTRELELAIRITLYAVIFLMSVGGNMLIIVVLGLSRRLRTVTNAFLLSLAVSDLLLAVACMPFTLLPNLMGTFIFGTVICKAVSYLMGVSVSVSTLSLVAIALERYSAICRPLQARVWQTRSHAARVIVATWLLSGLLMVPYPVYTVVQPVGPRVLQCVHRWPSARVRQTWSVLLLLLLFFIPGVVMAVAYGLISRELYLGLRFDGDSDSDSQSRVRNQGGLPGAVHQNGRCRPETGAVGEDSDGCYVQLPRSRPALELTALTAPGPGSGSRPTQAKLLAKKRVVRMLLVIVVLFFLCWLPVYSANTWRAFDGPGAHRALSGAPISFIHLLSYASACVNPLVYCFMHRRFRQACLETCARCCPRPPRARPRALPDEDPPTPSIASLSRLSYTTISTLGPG

## CCCCCN(CCCCC)C(=O)C(CCC(=O)O)NC(=O)c1ccc(Cl)c(Cl)c1 (racemic) [Lorglumide, R,S-4-[(3,4-Dichlorobenzoyl)amino]-5-(dipentylamino)-5-oxopentanoic acid]
CCK1 receptors
  potency and specificity as CCK receptor antagonist: potent, specific competitive antagonists
[1]
  activity after oral administration: active after oral administration

## CCCCCN(CCCOC)C(=O)C(CCC(=O)O)NC(=O)c1ccc(Cl)c(Cl)c1 (racemic) [Loxiglumide, R,S-4-(3,4-dichlorobenzoylamino)-5-(N-3-methoxypropyl-pentylamino)-5-oxo-pentanoic acid]
CCK1 receptors
  potency and specificity as CCK receptor antagonist: potent, specific competitive antagonists
[1]
  activity after oral administration: active after oral administration
[2]
  exogenous and endogenous CCK-induced delay in gastric emptying of liquids and solids: reduced
[3]; duodenal infusion of lipid
  proximal gastric relaxation: the relaxation was reversed
[3]; duodenal infusion of lipids
  intragastric pressure: able to reverse the lowering of intragastric pressure
[4]
  antro-pyloroduodenal dysmotility: modulated antro-pyloroduodenal dysmotility
Nonulcer dyspepsia; patients with non-ulcer dyspepsia, 8-week study
  dyspeptic symptoms: significantly improved dyspeptic symptoms
Nonulcer dyspepsia; patients with nonulcer dyspepsia and delayed gastric emptying, comparison to placebo
  gastric emptying: accelerate gastric emptying

## CCCCCN(CCCOC)C(=O)[C@@H](CCC(=O)O)NC(=O)c1ccc(Cl)c(Cl)c1 [Dexloxiglumide, R-4-(3,4-dichlorobenzoylamino)-5-(N-3-methoxypropyl-pentylamino)-5-oxo-pentanoic acid]
[5]
  ED50: 37.5 mg/kg
[5]; dose 10 mg/kg intraduodenally
  % Effect vs. control: 0%
  Average Score lesions: 5.8
[5]; dose 20 mg/kg intraduodenally
  % Effect vs. control: 17.2%
  Average Score lesions: 4.8
[5]; dose 40 mg/kg intraduodenally
  % Effect vs. control: 51.7%
  Average Score lesions: 2.6
[5]; dose 60 mg/kg intraduodenally
  % Effect vs. control: 62.1%
  Average Score lesions: 2.2
[5]; dose 100 mg/kg intraduodenally
  % Effect vs. control: 100%
  Average Score lesions: 0
CCK1 receptors; anti-CCK activity
  potency relative to the racemic compound (loxiglumide): approximately twice
[3]; duodenal lipid infusion
  tolerance to water volume: reversed the diminished tolerance to water volume
Functional dyspepsia
  dyspepsia symptom scores: significantly improved dyspepsia symptom scores
[6]
  colonic transit: accelerates colonic transit
  gallbladder contraction: effective inhibitor of gallbladder contraction
  gastric emptying: accelerates gastric emptying
  lower esophageal sphincter (LES) function: improves lower esophageal sphincter (LES) function

## COc1ccc2[nH]c([S+]([O-])Cc3ncc(C)c(OC)c3C)nc2c1 (stereo not drawn) [Omeprazole]
[5]
  ED50: 5.4 mg/kg
[5]; dose 0.1 mg/kg intraduodenally
  % Effect vs. control: 3.4%
  Average Score lesions: 5.6
[5]; dose 0.3 mg/kg intraduodenally
  % Effect vs. control: 0%
  Average Score lesions: 5.8
[5]; dose 1.0 mg/kg intraduodenally
  % Effect vs. control: 14.3%
  Average Score lesions: 4.8
[5]; dose 3.0 mg/kg intraduodenally
  % Effect vs. control: 53.4%
  Average Score lesions: 2.7

## CCCN(CCC)C(=O)C(CCC(=O)O)NC(=O)c1ccccc1 (stereo not drawn) [proglumide]
CCK1 receptors
  potency and specificity as CCK receptor antagonist: low potency and specificity
CCK2 receptors
  binding to CCK2 receptors: effectively binds CCK2 receptors
